Biological target: Aurora B/INCENP (Homo sapiens, UniProt Q96GD4)
Experiment: Determination of inhibition of AIK: Aurora B/INCENP direct fluorescence polarization (IMAP) assay
Type: biochemical
Conditions: 10 uM ATP, 0.8 nM Aurora B/INCENP; values given as bins; read-out: IC50 of Exemplified Compounds Against AIK B

Aurora B/INCENP, sequence (Q96GD4 whole entry): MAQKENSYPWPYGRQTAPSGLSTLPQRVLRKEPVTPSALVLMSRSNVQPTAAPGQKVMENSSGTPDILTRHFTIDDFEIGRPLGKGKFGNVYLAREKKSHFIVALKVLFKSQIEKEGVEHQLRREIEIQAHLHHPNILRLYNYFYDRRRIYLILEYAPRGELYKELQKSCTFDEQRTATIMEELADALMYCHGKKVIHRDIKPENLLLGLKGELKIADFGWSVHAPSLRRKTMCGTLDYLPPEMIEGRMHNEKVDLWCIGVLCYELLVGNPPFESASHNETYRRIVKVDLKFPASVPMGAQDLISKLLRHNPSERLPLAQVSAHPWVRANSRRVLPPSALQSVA
Aurora B/INCENP, sequence (Q9NQS7 whole entry partner): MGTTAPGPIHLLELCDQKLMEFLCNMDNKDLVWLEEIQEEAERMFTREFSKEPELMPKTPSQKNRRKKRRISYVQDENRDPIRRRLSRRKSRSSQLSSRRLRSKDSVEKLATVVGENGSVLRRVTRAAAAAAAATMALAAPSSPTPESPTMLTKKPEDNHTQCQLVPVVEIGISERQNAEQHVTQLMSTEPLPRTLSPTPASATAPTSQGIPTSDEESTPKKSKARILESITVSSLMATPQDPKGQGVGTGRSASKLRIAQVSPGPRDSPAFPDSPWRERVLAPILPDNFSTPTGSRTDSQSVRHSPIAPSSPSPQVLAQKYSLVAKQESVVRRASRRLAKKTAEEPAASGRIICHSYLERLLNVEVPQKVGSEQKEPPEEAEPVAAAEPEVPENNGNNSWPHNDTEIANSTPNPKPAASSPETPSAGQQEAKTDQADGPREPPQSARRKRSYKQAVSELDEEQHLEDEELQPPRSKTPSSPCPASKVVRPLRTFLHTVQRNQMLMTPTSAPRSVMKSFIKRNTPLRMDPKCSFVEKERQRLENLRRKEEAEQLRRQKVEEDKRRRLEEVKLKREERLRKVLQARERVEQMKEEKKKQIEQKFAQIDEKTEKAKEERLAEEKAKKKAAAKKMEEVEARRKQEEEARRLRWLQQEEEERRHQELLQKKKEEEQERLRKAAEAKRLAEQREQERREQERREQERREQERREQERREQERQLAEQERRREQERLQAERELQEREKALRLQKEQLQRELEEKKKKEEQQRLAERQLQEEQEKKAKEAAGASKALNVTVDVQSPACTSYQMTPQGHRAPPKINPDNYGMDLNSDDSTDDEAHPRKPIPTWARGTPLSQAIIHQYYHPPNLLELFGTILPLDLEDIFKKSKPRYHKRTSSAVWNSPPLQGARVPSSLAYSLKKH

Q: `CCS(=O)(=O)c1cccc(-c2ccc(OCCCN(C)CCO)c3[nH]c4ncc(C)cc4c23)c1` [Compound 305, 2-((3-(5-(3-(ethylsulfonyl)phenyl)-3-methyl-9H-pyrido[2,3-b]indol-8-yloxy)propyl)(methyl)amino)ethanol] was tested. Which IC50 did it give?
A: The IC50 was less than 4 nM.

Q: For `CCS(=O)(=O)c1cccc(-c2ccc(OCCCN(C)CCOP(=O)(O)O)c3[nH]c4ncc(C)cc4c23)c1` [Compound 308, 2-((3-(5-(3-(ethylsulfonyl)phenyl)-3-methyl-9H-pyrido[2,3-b]indol-8-yloxy)propyl)(methyl)amino)ethyl dihydrogen phosphate], which IC50 is on record?
A: The IC50 was less than 4 nM.

Q: Which IC50 does the source give for `Cc1cnc2[nH]c3c(OC[C@@H](O)CN(C)C)ccc(-c4cccc(S(=O)(=O)C5CC5)c4)c3c2c1` [Compound 313, (S)-1-(5-(3-(cyclopropylsulfonyl)phenyl)-3-methyl-9H-pyrido[2,3-b]indol-8-yloxy)-3-(dimethylamino)propan-2-ol] here?
A: Its IC50 is less than 4 nM.

Q: Which IC50 does the source give for `Cc1cnc2[nH]c3c(OC[C@H](CN(C)C)OP(=O)(O)O)ccc(-c4cccc(S(=O)(=O)C5CC5)c4)c3c2c1` [Compound 314, (S)-1-(5-(3-(cyclopropylsulfonyl)phenyl)-3-methyl-9H-pyrido[2,3-b]indol-8-yloxy)-3-(dimethylamino)propan-2-yl dihydrogen phosphate] here?
A: The IC50 was 4 to 5.5 nM.

Q: How did the IC50 turn out when `Cc1cnc2[nH]c3c(OC[C@@H](CN(C)C)OP(=O)(O)O)ccc(-c4cccc(S(=O)(=O)C5CC5)c4)c3c2c1` [Compound 315, (R)-1-(5-(3-(cyclopropylsulfonyl)phenyl)-3-methyl-9H-pyrido[2,3-b]indol-8-yloxy)-3-(dimethylamino)propan-2-yl dihydrogen phosphate] was run?
A: The IC50 was less than 4 nM.

Q: How did the IC50 turn out when `Cc1cc(Nc2ccc(OCC3CCN(C)CC3)c3[nH]c4ncc(Cl)cc4c23)ccc1N1CCN(C)CC1` [Compound 316, 3-chloro-N-(3-methyl-4-(4-methylpiperazin-1-yl)phenyl)-8-((1-methylpiperidin-4-yl)methoxy)-9H-pyrido[2,3-b]indol-5-amine] was run?
A: The IC50 was greater than 13 nM.

Q: How did the IC50 turn out when `CCN(CCO)CCOc1ccc(-c2cccc(S(=O)(=O)C3CC3)c2)c2c1[nH]c1ncc(C)cc12` [Compound 318, 2-((2-(5-(3-(cyclopropylsulfonyl)phenyl)-3-methyl-9H-pyrido[2,3-b]indol-8-yloxy)ethyl)(ethyl)amino)ethanol] was run?
A: Its IC50 is 8.6 to 13 nM.

Q: How did the IC50 turn out when `CN(CCO)CCOc1ccc(-c2cccc(S(=O)(=O)C3CC3)c2)c2c1[nH]c1ncc(Cl)cc12` [Compound 319, 2-((2-(3-chloro-5-(3-(cyclopropylsulfonyl)phenyl)-9H-pyrido[2,3-b]indol-8-yloxy)ethyl)(methyl)amino)ethanol] was run?
A: The IC50 was less than 4 nM.

Q: For `Cc1cnc2[nH]c3c(OCCN4CCC(O)CC4)ccc(-c4cccc(S(=O)(=O)C5CC5)c4)c3c2c1` [Compound 322, 1-(2-(5-(3-(cyclopropylsulfonyl)phenyl)-3-methyl-9H-pyrido[2,3-b]indol-8-yloxy)ethyl)piperidin-4-ol], which IC50 is on record?
A: Its IC50 is less than 4 nM.

Q: With `CCN(CCO)CCOc1ccc(-c2cccc(S(=O)(=O)C3CC3)c2)c2c1[nH]c1ncc(Cl)cc12` [Compound 323, 2-((2-(3-chloro-5-(3-(cyclopropylsulfonyl)phenyl)-9H-pyrido[2,3-b]indol-8-yloxy)ethyl)(ethyl)amino)ethanol] as the compound, how does the IC50 read?
A: Its IC50 is 5.6 to 8.5 nM.

Q: For `O=S(=O)(c1cccc(-c2ccc(OCCN3CCC(O)CC3)c3[nH]c4ncc(Cl)cc4c23)c1)C1CC1` [Compound 325, 1-(2-(3-chloro-5-(3-(cyclopropylsulfonyl)phenyl)-9H-pyrido[2,3-b]indol-8-yloxy)ethyl)piperidin-4-ol], which IC50 is on record?
A: Its IC50 is less than 4 nM.

Q: Which IC50 does the source give for `CCS(=O)(=O)c1cccc(-c2ccc(OCCN3CCC(O)CC3)c3[nH]c4ncc(Cl)cc4c23)c1` [Compound 327, 1-(2-(3-chloro-5-(3-(ethylsulfonyl)phenyl)-9H-pyrido[2,3-b]indol-8-yloxy)ethyl)piperidin-4-ol] here?
A: The IC50 was 8.6 to 13 nM.

Q: How did the IC50 turn out when `CCS(=O)(=O)c1cccc(-c2ccc(OCCn3ccnc3)c3[nH]c4ncc(C)cc4c23)c1` [Compound 333, 8-(2-(1H-imidazol-1-yl)ethoxy)-5-(3-(ethylsulfonyl)phenyl)-3-methyl-9H-pyrido[2,3-b]indole] was run?
A: The IC50 was greater than 13 nM.

Q: `Cc1cnc2[nH]c3c(OCCCN(CCO)CC(F)(F)F)ccc(-c4cccc(S(=O)(=O)C5CC5)c4)c3c2c1` [Compound 339, 2-((3-(5-(3-(cyclopropylsulfonyl)phenyl)-3-methyl-9H-pyrido[2,3-b]indol-8-yloxy)propyl)(2,2,2-trifluoroethyl)amino)ethanol] was tested. Which IC50 did it give?
A: Its IC50 is greater than 13 nM.

Q: For `CCS(=O)(=O)c1cccc(-c2ccc(OCCCN(CCO)CC(F)(F)F)c3[nH]c4ncc(C)cc4c23)c1` [Compound 340, 2-((3-(5-(3-(ethylsulfonyl)phenyl)-3-methyl-9H-pyrido[2,3-b]indol-8-yloxy)propyl)(2,2,2-trifluoroethyl)amino)ethanol], which IC50 is on record?
A: The IC50 was greater than 13 nM.

Q: `Cc1cnc2[nH]c3c(OCCCN(CCO)CC(F)F)ccc(-c4cccc(S(=O)(=O)C5CC5)c4)c3c2c1` [Compound 341, 2-((3-(5-(3-(cyclopropylsulfonyl)phenyl)-3-methyl-9H-pyrido[2,3-b]indol-8-yloxy)propyl)(2,2-difluoroethyl)amino)ethanol] was tested. Which IC50 did it give?
A: Its IC50 is greater than 13 nM.

Q: With `CCS(=O)(=O)c1cccc(-c2ccc(OCCCN(CCOP(=O)(O)O)CC(F)(F)F)c3[nH]c4ncc(C)cc4c23)c1` [Compound 343, 2-((3-(5-(3-(ethylsulfonyl)phenyl)-3-methyl-9H-pyrido[2,3-b]indol-8-yloxy)propyl)(2,2,2-trifluoroethyl)amino)ethyl dihydrogen phosphate] as the compound, how does the IC50 read?
A: Its IC50 is less than 4 nM.

Q: How did the IC50 turn out when `Cc1cnc2[nH]c3c(OCC4CCN(CCO)CC4)ccc(-c4cccc(S(=O)(=O)C5CC5)c4)c3c2c1` [Compound 345, 2-(4-((5-(3-(cyclopropylsulfonyl)phenyl)-3-methyl-9H-pyrido[2,3-b]indol-8-yloxy)methyl)piperidin-1-yl)ethanol] was run?
A: The IC50 was less than 4 nM.

Q: Which IC50 does the source give for `Cc1cnc2[nH]c3c(OCC4CCN(CCOP(=O)(O)O)CC4)ccc(-c4cccc(S(=O)(=O)C5CC5)c4)c3c2c1` [Compound 346, 2-(4-((5-(3-(cyclopropylsulfonyl)phenyl)-3-methyl-9H-pyrido[2,3-b]indol-8-yloxy)methyl)piperidin-1-yl)ethyl dihydrogen phosphate] here?
A: Its IC50 is less than 4 nM.

Q: With `Cc1cnc2[nH]c3c(OCCCN4CCC(COP(=O)(O)O)CC4)ccc(-c4cccc(S(=O)(=O)C5CC5)c4)c3c2c1` [Compound 347, (1-(3-(5-(3-(cyclopropylsulfonyl)phenyl)-3-methyl-9H-pyrido[2,3-b]indol-8-yloxy)propyl)piperidin-4-yl)methyl dihydrogen phosphate] as the compound, how does the IC50 read?
A: Its IC50 is less than 4 nM.

Q: Which IC50 does the source give for `CCS(=O)(=O)c1cccc(-c2ccc(OCCCOP(=O)(O)O)c3[nH]c4ncc(C)cc4c23)c1` [Compound 350, 3-(5-(3-(ethylsulfonyl)phenyl)-3-methyl-9H-pyrido[2,3-b]indol-8-yloxy)propyl dihydrogen phosphate] here?
A: Its IC50 is less than 4 nM.

Q: How did the IC50 turn out when `Cc1cnc2[nH]c3c(OC[C@@H]4CNCCO4)ccc(-c4cccc(S(=O)(=O)C5CC5)c4)c3c2c1` [Compound 358, (S)-2-((5-(3-(cyclopropylsulfonyl)phenyl)-3-methyl-9H-pyrido[2,3-b]indol-8-yloxy)methyl)morpholine] was run?
A: Its IC50 is less than 4 nM.

Q: `Cc1cnc2[nH]c3c(OC[C@H]4CNCCO4)ccc(-c4cccc(S(=O)(=O)C5CC5)c4)c3c2c1` [Compound 359, (R)-2-((5-(3-(cyclopropylsulfonyl)phenyl)-3-methyl-9H-pyrido[2,3-b]indol-8-yloxy)methyl)morpholine] was tested. Which IC50 did it give?
A: Its IC50 is less than 4 nM.

Q: Which IC50 does the source give for `Cc1cnc2[nH]c3c(OC[C@@H]4CN(CCO)CCO4)ccc(-c4cccc(S(=O)(=O)C5CC5)c4)c3c2c1` [Compound 363, (S)-2-(2-((5-(3-(cyclopropylsulfonyl)phenyl)-3-methyl-9H-pyrido[2,3-b]indol-8-yloxy)methyl)morpholino)ethanol] here?
A: Its IC50 is 4 to 5.5 nM.

Q: `Cc1cnc2[nH]c3c(OC[C@@H]4CN(C)CCO4)ccc(-c4cccc(S(=O)(=O)C5CC5)c4)c3c2c1` [Compound 370, (S)-2-((5-(3-(cyclopropylsulfonyl)phenyl)-3-methyl-9H-pyrido[2,3-b]indol-8-yloxy)methyl)-4-methylmorpholine] was tested. Which IC50 did it give?
A: The IC50 was 4 to 5.5 nM.

Q: With `Cc1cnc2[nH]c3c(OC[C@H]4CN(C)CCO4)ccc(-c4cccc(S(=O)(=O)C5CC5)c4)c3c2c1` [Compound 371, (R)-2-((5-(3-(cyclopropylsulfonyl)phenyl)-3-methyl-9H-pyrido[2,3-b]indol-8-yloxy)methyl)-4-methylmorpholine] as the compound, how does the IC50 read?
A: Its IC50 is less than 4 nM.

Q: Which IC50 does the source give for `Cc1cnc2[nH]c3c(OC[C@@H]4CN(CCOP(=O)(O)O)CCO4)ccc(-c4cccc(S(=O)(=O)C5CC5)c4)c3c2c1` [Compound 373, (S)-2-(2-((5-(3-(cyclopropylsulfonyl)phenyl)-3-methyl-9H-pyrido[2,3-b]indol-8-yloxy)methyl)morpholino)ethyl dihydrogen phosphate] here?
A: The IC50 was 4 to 5.5 nM.

Q: For `Cc1cnc2[nH]c3c(OC[C@H]4CN(CCOP(=O)(O)O)CCO4)ccc(-c4cccc(S(=O)(=O)C5CC5)c4)c3c2c1` [Compound 375, (R)-2-(2-((5-(3-(cyclopropylsulfonyl)phenyl)-3-methyl-9H-pyrido[2,3-b]indol-8-yloxy)methyl)morpholino)ethyl dihydrogen phosphate], which IC50 is on record?
A: Its IC50 is less than 4 nM.

Q: `Cc1cnc2[nH]c3c(OC[C@H](O)CN4CCOCC4)ccc(-c4cccc(S(=O)(=O)C5CC5)c4)c3c2c1` [Compound 380, (R)-1-(5-(3-(cyclopropylsulfonyl)phenyl)-3-methyl-9H-pyrido[2,3-b]indol-8-yloxy)-3-morpholinopropan-2-ol] was tested. Which IC50 did it give?
A: Its IC50 is 4 to 5.5 nM.

Q: For `Cc1cnc2[nH]c3c(OC[C@@H](CN4CCOCC4)OP(=O)(O)O)ccc(-c4cccc(S(=O)(=O)C5CC5)c4)c3c2c1` [Compound 382, (R)-1-(5-(3-(cyclopropylsulfonyl)phenyl)-3-methyl-9H-pyrido[2,3-b]indol-8-yloxy)-3-morpholinopropan-2-yl dihydrogen phosphate], which IC50 is on record?
A: Its IC50 is less than 4 nM.

Q: Which IC50 does the source give for `CCS(=O)(=O)c1cccc(-c2ccc(O[C@H](C)CCO)c3[nH]c4ncc(C)cc4c23)c1` [Compound 388, (R)-3-(5-(3-(ethylsulfonyl)phenyl)-3-methyl-9H-pyrido[2,3-b]indol-8-yloxy)butan-1-ol] here?
A: Its IC50 is 4 to 5.5 nM.
